We go through 18 compounds from US9321756B2, “Azole compounds as PIM inhibitors” (priority 2011, dated 2016).

Read-outs that look alike come from different tables or passages of the source.

The target of test [1] is full length recombinant Pim-1 (Homo sapiens (Human), UniProt P11309). As to the kind of experiment: Pim enzyme assay (HTRF, phosphorylation of biotinylated-BAD (S112) peptide), Pim-1. It counts as biochemical. The following applies: Pim-1 enzyme assay; read-out: Pim_1_IC50. For orientation: Time-resolved FRET reads energy transfer from a long-lived donor to a nearby acceptor.
Chain of full length recombinant Pim-1 (P11309 whole entry): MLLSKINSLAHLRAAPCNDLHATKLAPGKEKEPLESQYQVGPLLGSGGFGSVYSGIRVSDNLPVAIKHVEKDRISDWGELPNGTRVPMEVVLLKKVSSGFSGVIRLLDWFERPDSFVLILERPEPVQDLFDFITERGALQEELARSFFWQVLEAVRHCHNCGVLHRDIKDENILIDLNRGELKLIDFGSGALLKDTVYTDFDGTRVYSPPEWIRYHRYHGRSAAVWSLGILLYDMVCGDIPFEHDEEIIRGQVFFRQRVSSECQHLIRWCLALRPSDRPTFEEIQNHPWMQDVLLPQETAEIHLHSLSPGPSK

Test [2] has as its target full length recombinant Pim-2 (Homo sapiens (Human), UniProt Q9P1W9). As to the kind of experiment: Pim enzyme assay (HTRF, phosphorylation of biotinylated-BAD (S112) peptide), Pim-2. To be noted: Pim-2 enzyme assay; read-out: Pim2_IC50. It counts as biochemical.
Test [3] concerns the target full length recombinant Pim-3 (Homo sapiens (Human), UniProt Q86V86). As to the kind of experiment: Pim enzyme assay (HTRF, phosphorylation of biotinylated-BAD (S112) peptide), Pim-3. It counts as biochemical. The following applies: Pim-3 enzyme assay; read-out: Pim3 IC50. The procedure, abridged: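 IC50 values were fitted with a 4-parameter logistic model to percent-of-control HTRF signal (Eu anti-phospho-BAD S112 antibody/streptavidin-APC). Reactions used full-length Pim-3 and biotin-BAD (S112) peptide, ran 1 h 30 min at RT (22 °C) in Hepes pH 7.0 buffer with BSA and DTT, and were stopped by 3 mM EDTA.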

The subject of test [4] is Pim-1 stably transfected U2OS human osteogenic sarcoma line. As to the kind of experiment: Pim cell assay U2OS (phospho-BAD normalized against total BAD), Pim-1 transfected. The format is cell-based. To be noted: Homo sapiens, U2OS.
The subject of test [5] is Pim-2 stably transfected U2OS human osteogenic sarcoma line. As to the kind of experiment: Pim cell assay U2OS (phospho-BAD normalized against total BAD), Pim-2 transfected. The format is cell-based. To be noted: Homo sapiens; U2OS cells, Pim-2 transfected; read-out: U2OS Pim2_Cell_IC50.
Setting [6] is: read-out: U2OS Pim1_Cell_IC50, U2OS cells, Pim-1 transfected.

Chain of full length recombinant Pim-2 (Q9P1W9 whole entry): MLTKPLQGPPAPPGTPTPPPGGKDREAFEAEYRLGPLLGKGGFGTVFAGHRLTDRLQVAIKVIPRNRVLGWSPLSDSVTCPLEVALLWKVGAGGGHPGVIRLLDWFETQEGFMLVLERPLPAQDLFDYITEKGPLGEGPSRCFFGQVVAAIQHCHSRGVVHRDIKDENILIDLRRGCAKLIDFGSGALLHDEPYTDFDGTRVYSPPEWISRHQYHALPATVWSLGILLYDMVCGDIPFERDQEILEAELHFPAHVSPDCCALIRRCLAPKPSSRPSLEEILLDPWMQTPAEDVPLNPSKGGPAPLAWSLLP

For `Nc1nnc(-c2ccc3[nH]cc(-c4cccc(N5CCCC5=O)n4)c3c2)s1` [Example 166, 1-(6-(5-(5-amino-1,3,4-thiadiazol-2-yl)-1H-indol-3-yl)-2-pyridinyl)-2-pyrrolidinone], the IC50 was 18.2 nM in test [1]; 38.3 nM in test [2]; 5.33 nM in test [3]; more than 31600 nM in test [4] (read-out: U2OS Pim1_Cell_IC50); more than 31600 nM in test [5].
As to `CNc1nnc(-c2ccc3[nH]cc(-c4nccc(N5CCOCC5)n4)c3c2)s1` [Example 134, N-methyl-5-(3-(4-(4-morpholinyl)-2-pyrimidinyl)-1H-indol-5-yl)-1,3,4-thiadiazol-2-amine], the IC50 in test [1] is 38 nM; in test [2] it was 16.3 nM; in test [3] it was 12.3 nM; in test [4] (setting [6]) it was 1440 nM; in test [5] it was 6110 nM.
For the compound `Nc1nnc(-c2ccc3[nH]cc(-c4cncc(N5CCOCC5)n4)c3c2)o1` [Example 90, 5-(3-(6-(4-morpholinyl)-2-pyrazinyl)-1H-indol-5-yl)-1,3,4-oxadiazol-2-amine], the IC50 came to 8.91 nM in test [1]; 13.4 nM in test [2]; 6.46 nM in test [3]; 374 nM in test [4] (read-out: U2OS Pim1_Cell_IC50); 5420 nM in test [5].
On the same counts, the results for `CC1CCCN1c1ccnc(-c2c[nH]c3ccc(-c4nnc(N)o4)cc23)n1` (stereo not drawn) [Example 97, 5-(3-(4-(2-methyl-1-pyrrolidinyl)-2-pyrimidinyl)-1H-indol-5-yl)-1,3,4-oxadiazol-2-amine] are 6.42 nM, 1.7 nM, 1.22 nM, 100 nM and 315 nM.
Regarding `CCOc1cncc(-c2c[nH]c3ccc(-c4nnc(N)s4)cc23)n1` [Example 19, 5-(3-(6-ethoxypyrazin-2-yl)-1H-indol-5-yl)-1,3,4-thiadiazol-2-amine], the IC50 in test [1] was found to be 19.7 nM; in test [2], 27.8 nM; in test [3] it was 7.8 nM; in test [4] (setting [6]) it was 205 nM; in test [5], 2750 nM.
On to `CNc1nnc(-c2ccc3[nH]cc(-c4ccc5c(c4)OC(C)(C)C5)c3c2)s1` [Example 216, 5-(3-(2,2-dimethyl-2,3-dihydro-1-benzofuran-6-yl)-1H-indol-5-yl)-N-methyl-1,3,4-thiadiazol-2-amine], for which the IC50 in test [1] was 187 nM; in test [2], 1840 nM; in test [3], 91.5 nM; in test [4] (read-out: U2OS Pim1_Cell_IC50), 1770 nM; in test [5], more than 31600 nM.
Take `CNc1nnc(-c2ccc3[nH]cc(-c4nccc(N5CCC[C@H](N)C5)n4)c3c2)s1` [Example 128, (3S)-1-(2-(5-(5-(methylamino)-1,3,4-thiadiazol-2-yl)-1H-indol-3-yl)-4-pyrimidinyl)-3-piperidinamine]: the IC50 in test [1] came out at 2.91 nM; in test [2] it was 1.53 nM; in test [3] it was 0.734 nM; in test [4] (setting [6]) it was 13800 nM; in test [5], 15900 nM.
Consider `Cc1ccn(-c2cccc(-c3c[nH]c4ccc(-c5nnc(N)s5)cc34)n2)n1` [Example 179, 5-(3-(6-(3-methyl-1H-pyrazol-1-yl)-2-pyridinyl)-1H-indol-5-yl)-1,3,4-thiadiazol-2-amine], for which the IC50 is 77 nM in test [1]; 64.6 nM in test [2]; 24.1 nM in test [3]; 816 nM in test [4] (read-out: U2OS Pim1_Cell_IC50); more than 31600 nM in test [5].
In the case of `CC(C)Nc1nnc(-c2ccc3[nH]cc(-c4cncc(C5CC5)n4)c3c2)o1` [Example 46, 5-(3-(6-cyclopropylpyrazin-2-yl)-1H-indol-5-yl)-N-isopropyl-1,3,4-oxadiazol-2-amine], the IC50 amounted to 1.39 nM in test [1]; 4.25 nM in test [2]; 0.498 nM in test [3]; 32.1 nM in test [4] (read-out: U2OS Pim1_Cell_IC50); 827 nM in test [5].
Turning to `Nc1nnc(-c2ccc3[nH]cc(-c4cncc(N5CCC(F)(F)C5)n4)c3c2)o1` [Example 88, 5-(3-(6-(3,3-difluoro-1-pyrrolidinyl)-2-pyrazinyl)-1H-indol-5-yl)-1,3,4-oxadiazol-2-amine], the IC50 in test [1] was found to be 1.92 nM; in test [2] it was 6.43 nM; in test [3], 1.6 nM; in test [4] (read-out: U2OS Pim1_Cell_IC50), 40.7 nM; in test [5], 464 nM.
On the same counts, the results for `CC1CCCCN1c1ccnc(-c2c[nH]c3ccc(-c4nnc(N)o4)cc23)n1` (stereo not drawn) [Example 3, 5-(3-(4-(2-methylpiperidin-1-yl)pyrimidin-2-yl)-1H-indol-5-yl)-1,3,4-oxadiazol-2-amine] are 5.95 nM, 2.19 nM, 0.974 nM, 54.6 nM and 235 nM.
On the same counts, the results for `CNc1nnc(-c2ccc3[nH]cc(-c4cncc(N5CCCCC5)n4)c3c2)s1` [Example 227, N-methyl-5-(3-(6-(1-piperidinyl)-2-pyrazinyl)-1H-indol-5-yl)-1,3,4-thiadiazol-2-amine] are 5.07 nM, 41 nM, 1.42 nM, 121 nM and 9950 nM.
On the same counts, the results for `Nc1nnc(-c2ccc3[nH]cc(-c4cncc(C5CC5)n4)c3c2)o1` [Example 98, 5-(3-(6-cyclopropyl-2-pyrazinyl)-1H-indol-5-yl)-1,3,4-oxadiazol-2-amine] are 4.34 nM, 4.85 nM, 1.59 nM, 85.7 nM and 721 nM.
Regarding `CC(C)Nc1cncc(-c2c[nH]c3ccc(-c4nnc(N)o4)cc23)n1` [Example 101, 6-(5-(5-amino-1,3,4-oxadiazol-2-yl)-1H-indol-3-yl)-N-(1-methylethyl)-2-pyrazinamine], the IC50 in test [1] amounted to 1.5 nM; in test [2], 4.03 nM; in test [3], 0.901 nM; in test [4] (setting [6]) it was 66.4 nM; in test [5] it was 809 nM.
For the compound `CC(C)Oc1cccc(-c2c[nH]c3ccc(-c4nnco4)cc23)n1` [Example 244, 3-(6-(1-methylethoxy)-2-pyridinyl)-5-(1,3,4-oxadiazol-2-yl)-1H-indole], the IC50 in test [1] came to 24.8 nM; in test [2], 85.4 nM; in test [3], 15.1 nM; in test [4] (read-out: U2OS Pim1_Cell_IC50), 310 nM; in test [5], 12200 nM.
On the same counts, the results for `c1cc2[nH]cc(-c3cncc(C4CC4)n3)c2cc1-c1nnc(NC2CNC2)o1` [Example 247, N-3-azetidinyl-5-(3-(6-cyclopropyl-2-pyrazinyl)-1H-indol-5-yl)-1,3,4-oxadiazol-2-amine] are 1.34 nM, 1.05 nM, 0.346 nM, 1940 nM and more than 31600 nM.
As for `Nc1nnc(-c2ccc3[nH]cc(-c4cncc(N5CCOCC5)n4)c3c2)s1` [Example 156, 5-(3-(6-(4-morpholinyl)-2-pyrazinyl)-1H-indol-5-yl)-1,3,4-thiadiazol-2-amine], the IC50 in test [1] is 5.59 nM; in test [2], 12.3 nM; in test [3], 4.38 nM; in test [4] (setting [6]) it was 163 nM; in test [5], 1900 nM.
On the same counts, the results for `Nc1nnc(-c2ccc3[nH]cc(-c4cncc(O[C@@H]5CCCNC5)n4)c3c2)o1` [Example 99, 5-(3-(6-((3R)-3-piperidinyloxy)-2-pyrazinyl)-1H-indol-5-yl)-1,3,4-oxadiazol-2-amine] are 6.77 nM, 12.9 nM, 12.4 nM, 12200 nM and more than 31600 nM.
